# Assay results taken from patent US6706740B2, “Fungicidal heterocyclic aromatic amides and their compositions, methods of use and preparation” (Dow AgroSciences LLC, priority 1999, dated 2004).
# System: Phytophthora infestans (PHYTIN)
# Test: microbe, parasite or virus in culture
# Format: cell-based
# Settings: Phytophthora infestans, read-out: PHYTIN in vitro Growth Inhibition
row,Structure (SMILES),inhibition at 25 ppm
1,COc1ccnc(C(=O)NCCCc2cccnc2)c1O [Compound 243],< 80%
2,CC(NC(=O)c1ccncc1O)c1ccc(C(F)(F)F)cc1 (centres unmarked) [Compound 510],< 80%
3,Cc1cc(C)cc(NC(=O)c2ncccc2O)c1 [Compound 215],< 80%
4,O=C(Nc1ccc(Oc2ccccc2C(F)(F)F)cc1)c1nc(Br)ccc1O [Compound 497],< 80%

# System: Mycosphaerella graminicola (Septoria tritici—SEPTTR)
# Test: In vitro fungal growth inhibition, Mycosphaerella graminicola (SEPTTR)
# Format: cell-based
# Settings: Zymoseptoria tritici; 25 ppm in growth medium; read-out: SEPTTR in vitro Growth Inhibition
row,Structure (SMILES),inhibition at 25 ppm
1,COc1ccnc(C(=O)NCCCc2cccnc2)c1O [Compound 243],< 80%
2,Cc1cc(C)cc(NC(=O)c2ncccc2O)c1 [Compound 215],> 80%

# Same assay, conditions: Zymoseptoria tritici; 25 ppm in the growth medium; read-out: SEPTTR in vitro Growth Inhibition
row,Structure (SMILES),inhibition at 25 ppm
1,CC(NC(=O)c1ccncc1O)c1ccc(C(F)(F)F)cc1 (centres unmarked) [Compound 510],< 80%
2,O=C(Nc1ccc(Oc2ccccc2C(F)(F)F)cc1)c1nc(Br)ccc1O [Compound 497],< 80%

# System: Septoria tritici—SEPTTR
# Test: Leaf Blotch of Wheat, in vivo whole plant, 24 Hour Protectant
# Settings: Zymoseptoria tritici, 24 h, 100 ppm spray, 24 hour protectant, wheat; control of fungal infection vs untreated plants; read-out: SEPTTR in vivo 1 Day Protectant
row,Structure (SMILES),pest or weed control at 100 ppm
1,COc1ccnc(C(=O)NCCCc2cccnc2)c1O [Compound 243],25 to 74%
2,Cc1cc(C)cc(NC(=O)c2ncccc2O)c1 [Compound 215],< 25%

# Same assay, conditions: Zymoseptoria tritici, 24 h, wheat plants sprayed at 100 ppm, inoculated after 24 hours; control of fungal infection vs untreated plants; read-out: SEPTTR in vivo 1 Day Protectant
row,Structure (SMILES),pest or weed control at 100 ppm
1,CC(NC(=O)c1ccncc1O)c1ccc(C(F)(F)F)cc1 (centres unmarked) [Compound 510],< 25%
2,O=C(Nc1ccc(Oc2ccccc2C(F)(F)F)cc1)c1nc(Br)ccc1O [Compound 497],25 to 74%

# System: Rhizoctonia solani (RHIZSO)
# Test: microbe, parasite or virus in culture
# Format: cell-based
# Settings: Rhizoctonia solani, read-out: RHIZSO in vitro Growth Inhibition
row,Structure (SMILES),inhibition at 25 ppm
1,COc1ccnc(C(=O)NCCCc2cccnc2)c1O [Compound 243],< 80%
2,CC(NC(=O)c1ccncc1O)c1ccc(C(F)(F)F)cc1 (centres unmarked) [Compound 510],< 80%
3,Cc1cc(C)cc(NC(=O)c2ncccc2O)c1 [Compound 215],< 80%
4,O=C(Nc1ccc(Oc2ccccc2C(F)(F)F)cc1)c1nc(Br)ccc1O [Compound 497],< 80%

# System: Magnaporthe grisea (Pyricularia oryzae—PYRIOR)
# Test: microbe, parasite or virus in culture
# Format: cell-based
# Settings: Pyricularia oryzae, read-out: PYRIOR in vitro Growth Inhibition
row,Structure (SMILES),inhibition at 25 ppm
1,COc1ccnc(C(=O)NCCCc2cccnc2)c1O [Compound 243],< 80%
2,CC(NC(=O)c1ccncc1O)c1ccc(C(F)(F)F)cc1 (centres unmarked) [Compound 510],< 80%
3,Cc1cc(C)cc(NC(=O)c2ncccc2O)c1 [Compound 215],< 80%
4,O=C(Nc1ccc(Oc2ccccc2C(F)(F)F)cc1)c1nc(Br)ccc1O [Compound 497],< 80%

# System: Puccinia recondita—PUCCRT
# Test: Brown Rust of Wheat, in vivo whole plant, 24 Hour Protectant
# Settings: Puccinia; 100 ppm spray, 24 hour protectant, wheat; control of fungal infection vs untreated plants; read-out: PUCCRT in vivo 1 Day Protectant
row,Structure (SMILES),pest or weed control at 100 ppm
1,COc1ccnc(C(=O)NCCCc2cccnc2)c1O [Compound 243],25 to 74%
2,Cc1cc(C)cc(NC(=O)c2ncccc2O)c1 [Compound 215],< 25%

# Same assay, conditions: Puccinia; wheat plants sprayed at 100 ppm, inoculated after 24 hours; control of fungal infection vs untreated plants; read-out: PUCCRT in vivo 1 Day Protectant
row,Structure (SMILES),pest or weed control at 100 ppm
1,CC(NC(=O)c1ccncc1O)c1ccc(C(F)(F)F)cc1 (centres unmarked) [Compound 510],< 25%
2,O=C(Nc1ccc(Oc2ccccc2C(F)(F)F)cc1)c1nc(Br)ccc1O [Compound 497],25 to 74%

# System: Ustilago maydis (USTIMA)
# Test: microbe, parasite or virus in culture
# Format: cell-based
# Settings: Mycosarcoma maydis, read-out: USTIMA in vitro Growth Inhibition
row,Structure (SMILES),inhibition at 25 ppm
1,COc1ccnc(C(=O)NCCCc2cccnc2)c1O [Compound 243],< 80%
2,CC(NC(=O)c1ccncc1O)c1ccc(C(F)(F)F)cc1 (centres unmarked) [Compound 510],< 80%
3,Cc1cc(C)cc(NC(=O)c2ncccc2O)c1 [Compound 215],< 80%
4,O=C(Nc1ccc(Oc2ccccc2C(F)(F)F)cc1)c1nc(Br)ccc1O [Compound 497],< 80%

# System: Stagonospora nodorum (Leptosphaeria nodorum—LEPTNO)
# Test: In vitro fungal growth inhibition, Stagonospora nodorum (LEPTNO)
# Format: cell-based
# Settings: Leptosphaeria; 25 ppm in growth medium; read-out: LEPTNO in vitro Growth Inhibition
row,Structure (SMILES),inhibition at 25 ppm
1,COc1ccnc(C(=O)NCCCc2cccnc2)c1O [Compound 243],< 80%
2,Cc1cc(C)cc(NC(=O)c2ncccc2O)c1 [Compound 215],< 80%

# Same assay, conditions: Leptosphaeria; 25 ppm in the growth medium; read-out: LEPTNO in vitro Growth Inhibition
row,Structure (SMILES),inhibition at 25 ppm
1,CC(NC(=O)c1ccncc1O)c1ccc(C(F)(F)F)cc1 (centres unmarked) [Compound 510],< 80%
2,O=C(Nc1ccc(Oc2ccccc2C(F)(F)F)cc1)c1nc(Br)ccc1O [Compound 497],< 80%

# System: Phytophthora infestans—PHYTIN
# Test: whole plant or invertebrate
# Format: in vivo
# Settings: Phytophthora, in Solanum lycopersicum, 24 h, read-out: PHYTIN in vivo 1 Day Protectant
row,Structure (SMILES),pest or weed control at 100 ppm
1,COc1ccnc(C(=O)NCCCc2cccnc2)c1O [Compound 243],< 25%
2,CC(NC(=O)c1ccncc1O)c1ccc(C(F)(F)F)cc1 (centres unmarked) [Compound 510],25 to 74%
3,Cc1cc(C)cc(NC(=O)c2ncccc2O)c1 [Compound 215],< 25%
4,O=C(Nc1ccc(Oc2ccccc2C(F)(F)F)cc1)c1nc(Br)ccc1O [Compound 497],< 25%

# System: Erysiphe graminis—ERYSGT
# Test: Powdery Mildew of Wheat, in vivo whole plant, 24 Hour Protectant
# Settings: Erysiphe; 100 ppm spray, 24 hour protectant, wheat; control of fungal infection vs untreated plants; read-out: ERYSGT in vivo 1 Day Protectant
row,Structure (SMILES),pest or weed control at 100 ppm
1,COc1ccnc(C(=O)NCCCc2cccnc2)c1O [Compound 243],< 25%
2,Cc1cc(C)cc(NC(=O)c2ncccc2O)c1 [Compound 215],< 25%

# Same assay, conditions: Erysiphe; wheat plants sprayed at 100 ppm, inoculated after 24 hours; control of fungal infection vs untreated plants; read-out: ERYSGT in vivo 1 Day Protectant
row,Structure (SMILES),pest or weed control at 100 ppm
1,CC(NC(=O)c1ccncc1O)c1ccc(C(F)(F)F)cc1 (centres unmarked) [Compound 510],< 25%
2,O=C(Nc1ccc(Oc2ccccc2C(F)(F)F)cc1)c1nc(Br)ccc1O [Compound 497],< 25%

# System: Leptosphaeria nodorum—LEPTNO
# Test: Glume Blotch of Wheat, in vivo whole plant, 24 Hour Protectant
# Settings: Leptosphaeria; 100 ppm spray, 24 hour protectant, wheat; control of fungal infection vs untreated plants; read-out: LEPTNO in vivo 1 Day Protectant
row,Structure (SMILES),pest or weed control at 100 ppm
1,COc1ccnc(C(=O)NCCCc2cccnc2)c1O [Compound 243],25 to 74%
2,Cc1cc(C)cc(NC(=O)c2ncccc2O)c1 [Compound 215],< 25%

# Same assay, conditions: Leptosphaeria; wheat plants sprayed at 100 ppm, inoculated after 24 hours; control of fungal infection vs untreated plants; read-out: LEPTNO in vivo 1 Day Protectant
row,Structure (SMILES),pest or weed control at 100 ppm
1,CC(NC(=O)c1ccncc1O)c1ccc(C(F)(F)F)cc1 (centres unmarked) [Compound 510],< 25%
2,O=C(Nc1ccc(Oc2ccccc2C(F)(F)F)cc1)c1nc(Br)ccc1O [Compound 497],25 to 74%
